{"source": "patent US11779628B2", "about": "“Use of cell-permeable peptide inhibitors of the JNK signal transduction pathway for the treatment of various diseases” (Xigen Inflammation Ltd., priority 2014, dated 2023)", "key": {"[1]": {"assay": "Phase I pharmacokinetics after single iv infusion", "conditions": "human, in vivo", "protocol": "The primary objective of the study was to assess the safety and tolerability of XG-102 following intravenous (iv) infusion of single escalating doses of XG-102 to healthy male volunteers. The secondary objective of the study was to assess the pharmacokinetics of XG-102 following iv infusion of single escalating doses of XG-102 to healthy male volunteers. Doses were administered as a 60 minute iv infusion. For control purposes, placebo iv infusion was administered to control subjects. This was a single-centre, randomized, double blind, placebo controlled, ascending single dose, sequential group study. […] Screening was performed in the 3-week period prior to dosing. Dosing occurred on Day 0 for each subject. […] Data for all subjects were included in the safety analyses; data for all subjects who received XG-102 were included in the pharmacokinetic analyses."}, "[2]": {"test_system": "Sprague-Dawley albino rats, light-induced photoreceptor cell death", "format": "in vivo", "conditions": "Day 23", "source_text": "The aim of this study was to investigate the dose effect of XG-102 on light-induced photoreceptor cell death.\n50 male Rat (Sprague-Dawley (albinos rat); approximately 8 weeks; 200-250 g (on ordering)) have been used. Rats are most commonly used in this experimental model. Animals were examined before study, and particular attention was paid to the eyes. Animals were held in observation for 2 weeks following their arrival. Animals were observed daily for signs of illness. Only healthy animals with no ocular abnormalities were accepted for use in experiments. Animals were housed individually in standard cages (420×270×190 mm)^ii. All animals were housed under identical environmental conditions. The temperature was held at 22±2° C. and the relative humidity at 55±10%. Rooms were continuously ventilated (15 times per hour). A cycle of 12 hours light (200-300 lx) and 12 hours darkness was automatically controlled. These parameters were continuously controlled and recorded. Throughout the study, animals had free access to food and water. They were fed a standard dry pellet diet. Tap water was available ad libitum from plastic bottles.\nForty-eight (48) rats were randomly divided into six (6) groups of eight (8) animals each. Test item (XG-102: 30 mg/ml, 3 mg/ml, and 0.3 mg/ml) and vehicle (0.9% NaCl) were administered by intravitreal injection in right eyes the day before induction. The reference (Phenyl-N-test-Butylnitrone (PBN) (50 mg/kg)) and vehicle were intraperitoneally injected 30 min before induction then, 3 times during 12 hours of light exposition, then once after induction. Animals were placed in constant light (7000 lux) for 24 h. Electroretinograms (ERG) were recorded before light treatment and on days 9, 16 and 23 after induction. Eyes were then taken for histology and outer nuclear layer (ONL) thickness assessment. The table below summarizes the allocation of animals in treatment groups:\nFor the intravitreal injection animals were anesthetized by intramuscular injection of a mixture of xylazine/ketamine. Test item (5 μl) and vehicle (5 μl) were injected in the right eye. The injection was performed under an operating microscope in the supratemporal area at pars plana using a 33G-needle mounted on a 50 μl Hamilton. The filled syringe was mounted into the UltraMicroPump III to achieve accurate injection in microliter range. Reference and vehicle were injected intraperitoneally at a dose volume of 2.5 ml/kg using a 30G-needle mounted on a 1 ml-syringe.\nLight Exposure: The rats that had been dark-adapted overnight were exposed for 24 hours to a continuous white fluorescent light (7000 Ix) in clear plastic cages. Each cage contained one rat. After exposure, the rats returned to rearing cyclic light conditions.\nERG was recorded before induction and 7, 14 and 21 days after cessation of exposure (Days 9, 16 and 23) on right eyes of dark-adapted and anesthetized animals. The latency times (for a- and b-wave) and the a-wave and b-wave amplitudes were measured for each ERG; the latency times were expressed as millisecond and the a-wave and b-wave as a percentage of the baseline value obtained before light exposure. 15 min before measurement 10 μl Mydriaticum® (0.5% tropicamide) were instilled for pupillary dilatation.\nERG Parameters: • Color: white maximum. • Maximum intensity: 2.6 cd·s/m^2 (0 dB); Duration 0.24 ms; number of flash: 1. • Filter: 50 Hz. • Impedence Threshold: 90 kΩ.\nMeasurement of the ONL Thickness: After ERG testing, animal was euthanized by an overdose of pentobarbital and the right eyes were enucleated, fixed and embedded in paraffin. Sections (5 μm thick) were performed along the vertical meridian and stained with Trichrome-Masson. The vertical meridian included the optic nerve.\nGroup mean values and standard deviation were calculated. A statistical Mann and Whitney test was used to evaluate the differences between pair-wise groups. For comparison between time-point into each vehicle groups, a Friedman test was used. […]"}, "rats": {"test_system": "rats", "assay": "Ocular MTD studies, sub-conjunctival administration", "format": "in vivo, rat", "source_text": "(§1) Despite technical advances in ocular surgery, the physical trauma of this procedure continues to induce post-operative ocular inflammation warranting treatment. In ocular tissue, arachidonic acid is metabolized by cyclooxygenase (COX) to prostaglandins (PG) which are the most important lipid-derived mediators of inflammation. Surgical trauma causes a trigger of the arachidonic acid cascade which in turn generates PGs by activation of COX-1 and COX-2. Phospholipids in the cell membrane are the substrate for phospholipase A to generate arachidonic acid from which a family of chemically distinct PGs and leukotriens are produced. The ‘golden standard’ for the treatment of ocular inflammation are topical corticosteroids and/or Non-Steroidal Anti-inflammatory Drugs (NSAIDs). Side effects reported with (short-term) corticosteroid use include cataract formation, increased Intra Ocular Pressure (IOP), increased susceptibility to viral infections and retardation of the corneal epithelial and stromal wound healing. In addition, prolonged treatment with corticosteroids have been known to induce systemic side effects such as glucose impairment, hypertension, development of glaucoma, visual acuity defects, loss of visual field, and posterior subcapsular cataract formation. […]"}, "rabbits": {"test_system": "rabbits", "assay": "Ocular MTD studies, sub-conjunctival administration", "format": "in vivo, rabbit", "source_text": "as §1"}, "db/db mice": {"test_system": "db/db mice", "conditions": "mouse, in vivo", "quoted_text": "i) Animals • A total of twenty (20) male db/db mice (8 weeks old) were obtained from Charles River (Germany). Upon arrival, animals were group housed (n=6-7/group) and offered regular rodent chow (Altromin standard #1324 chow; C. Petersen, Ringsted, Denmark) and water ad libitum unless otherwise stated. The mice were housed under a 12:12 L/D cycle (lights on at 4:00 and lights off at 16:00) and in temperature and humidity controlled rooms.\nii) Groups and Randomization • On day −4, mice were randomized according to blood glucose level (fasted; blood glucose measured on Biosen S line analyzer (EKF diagnostic, Germany) to participate in one of the following drug treatment groups (n=6): • 1) Vehicle control, S.C. (physiological saline) • 2) XG-102 (SEQ ID NO: 11); 1 mg/kg; s.c. • 3) XG-102 (SEQ ID NO: 11); 10 mg/kg; s.c • All doses listed were calculated for the free-base. […] All compounds were administered sub-cutaneously (s.c.) in a volume of 3 ml/kg. The formulation instructions for vehicle control and XG-102 (SEQ ID NO: 11) were as follows: • First, XG-102 (SEQ ID NO: 11) was dissolved in the vehicle. […]\ni) Blood Glucose • Blood glucose was measured from 7 hour fasted animals 6 hours post dosing by collection of 10 μl blood samples from the tail-vein in hematocrite tubes and subsequent analysis on a Biosen s-line analyzer (EKF-diagnostic; Germany)."}, "[3]": {"conditions": "human, in vivo, 1 h", "procedure": "The quantification (plasma) of XG-102 in plasma was evaluated in a subset of 32 patients located in one site. A venous blood sample (2 ml) was obtained using a Li-Heparin tube 60 minutes after sub-conjunctival administration of study treatment. The exact time when the sample was performed was entered in the space provided on the e-CRF. The blood sample was centrifuged for 10 minutes at 2,500 RPM at room temperature. After centrifugation, using a pipette, the plasma was transferred to two 1.5 ml cryotubes. The cryotubes were then placed in a freezer at −80° C. and were then subsequently sent in dry ice with a temperature data logger to the central laboratory responsible for the analysis. Upon receipt at the central laboratory, the samples were stored at −80° C. until analyzed."}}, "note": "Like-named read-outs stand apart in the source and are kept apart here."}
{"smiles": "CC(C)C[C@@H](NC(=O)[C@@H](Cc1ccccc1)NC(=O)[C@H]1CCCN1C(=O)[C@@H](CCC(N)=O)NC(=O)[C@H](NC(=O)[C@H]1CCCN1C(=O)[C@@H](CCCNC(=N)N)NC(=O)[C@@H](CO)NC(=O)[C@@H](CCC(N)=O)NC(=O)[C@H](N)CC(=O)O)C(C)C)C(=O)N[C@H](CC(N)=O)C(=O)N[C@H](CC(C)C)C(=O)N[C@@H](C(=O)N[C@@H](C(=O)N1CCC[C@@H]1C(=O)N[C@H](CCCNC(=N)N)C(=O)N[C@H](CCCCN)C(=O)N1CCC[C@@H]1C(=O)N[C@H](CCCNC(=N)N)C(=O)N1CCC[C@@H]1C(=O)N1CCC[C@@H]1C(=O)N[C@H](CCCNC(=N)N)C(=O)N[C@H](CCCNC(=N)N)C(=O)N[C@H](CCCNC(=N)N)C(=O)N[C@H](CCC(N)=O)C(=O)N[C@H](CCCNC(=N)N)C(=O)N[C@H](CCCNC(=N)N)C(=O)N[C@H](CCCCN)C(=O)N[C@H](CCCCN)C(=O)N[C@H](CCCNC(=N)N)C(=O)NCC(=O)O)[C@H](C)O)[C@H](C)O", "note": "[XG-102]", "values": [{"measurement": "dose proportionality of AUC0-last", "setting": "[1]", "value": "increases in a more than linear proportion with dose in the tested dose range"}, {"measurement": "MRT", "setting": "[1]; 80 ug/kg", "value": "1.02 (14.7) h"}, {"measurement": "protection of ONL thickness", "setting": "[2]; high dose XG-102", "value": "No protection was observed with high dose XG-102"}, {"measurement": "recovery of the a-wave (% of baseline)", "setting": "[2]; low dose 1.5 μg/eye", "value": 48.3, "unit": "%"}, {"measurement": "loss of the mean ONL thickness", "setting": "[2]; low dose XG-102", "value": 40, "unit": "%"}, {"measurement": "loss of the mean ONL thickness", "setting": "[2]; mid dose XG-102", "value": 40, "unit": "%"}, {"measurement": "No Observed Adverse Effect Level (NOAEL)", "setting": "rats", "value": "around 20 μg"}, {"measurement": "No Observed Adverse Effect Level (NOAEL)", "setting": "rabbits", "value": "~600", "unit": "µg"}, {"measurement": "reaction of subcutaneous tissue at injection", "setting": "db/db mice; 1 mg/kg", "value": "mild nodular fibrosis was observed"}, {"measurement": "reaction of subcutaneous tissue at injection", "setting": "db/db mice; 10 mg/kg", "value": "nodular fibrosis was observed in the subcutaneous tissue"}, {"measurement": "XG-102 concentration in plasma", "setting": "[3]", "value": "< 10", "unit": "ng/mL"}]}
